Data reported in patent EP1336409B1 (priority 1995, dated 1997).

System: mechanical allodynia
Details: rat, in vivo

| Substance | Effective intrathecal doses [µg] | apparent order of potency for suppression of allodynia | block of mechanical allodynia |
| --- | --- | --- | --- |
| [ala^12-SNX-111 [SNX-273] | 0.1 to 0.3 | SNX-111 =SNX-273 > SNX-279 | block mechanical allodynia significantly |
| Met(0)^12-SNX-111 [SNX-279] | 0.1 to 0.3 | SNX-111 =SNX-273 > SNX-279 | block mechanical allodynia significantly |
